Results published in patent publication US20210380606A1, “5-AZAINDAZOLE DERIVATIVES AS ADENOSINE RECEPTOR ANTAGONISTS” (Merck Patent GmbH, priority 2018, published 2021).

Key:
Type in all cases: cell-based
[1] = molecular target: T1, human A2A receptors (Homo sapiens, UniProt P29274); assay: Functional human A2A receptor activity, recombinant HEK293 cells, cAMP (HTRF); conditions: read-out: A2A (Category)
T1 construct: expressed in transfected cells; host or cells: HEK293
Procedure, shortened: (§1)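 Adenosine receptor activity tracked via second-messenger cAMP; incubation 15 min, then HTRF detection of cellular cAMP.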

[2] = molecular target: T2, human A2B receptors (Homo sapiens, UniProt P29275); assay: Functional human A2B receptor activity, recombinant HEK293 cells, cAMP (HTRF); conditions: read-out: A2B (Category)
T2 construct: expressed in transfected cells; host or cells: HEK293
T2 sequence (P29275 1-332): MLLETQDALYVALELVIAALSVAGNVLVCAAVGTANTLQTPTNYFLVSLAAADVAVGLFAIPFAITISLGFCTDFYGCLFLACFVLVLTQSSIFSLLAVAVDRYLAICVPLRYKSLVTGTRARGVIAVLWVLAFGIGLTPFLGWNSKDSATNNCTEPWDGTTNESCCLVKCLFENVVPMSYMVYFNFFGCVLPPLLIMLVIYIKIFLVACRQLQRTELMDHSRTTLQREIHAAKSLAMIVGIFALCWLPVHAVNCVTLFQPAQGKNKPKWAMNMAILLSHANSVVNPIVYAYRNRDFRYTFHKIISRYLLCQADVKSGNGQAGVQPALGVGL
Procedure, shortened: as §1

[3] = molecular target: T3, Gs-coupled human A2A receptor (Homo sapiens, UniProt P29274); assay: Human T cell assay, endogenous A2A receptor, cAMP (HTRF)
T3 construct: The endogenous functional activity of the Gs-coupled human A2A receptor was measured in T cells; endogenous in cells; host or cells: human pan T cells isolated from PBMC of fresh whole blood
T3 sequence (P29274 whole entry): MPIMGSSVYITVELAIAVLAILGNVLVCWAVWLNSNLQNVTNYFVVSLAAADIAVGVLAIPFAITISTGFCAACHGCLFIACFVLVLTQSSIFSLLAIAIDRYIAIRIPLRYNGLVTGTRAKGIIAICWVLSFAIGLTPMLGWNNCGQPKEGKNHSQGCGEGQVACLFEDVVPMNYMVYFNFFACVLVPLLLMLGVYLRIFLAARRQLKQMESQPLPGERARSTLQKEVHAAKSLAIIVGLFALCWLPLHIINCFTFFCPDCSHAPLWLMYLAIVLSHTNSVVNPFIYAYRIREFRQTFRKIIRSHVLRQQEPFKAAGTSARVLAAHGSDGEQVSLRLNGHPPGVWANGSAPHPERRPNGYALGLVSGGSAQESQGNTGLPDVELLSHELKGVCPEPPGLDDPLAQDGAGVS
Procedure: The endogenous functional activity of the Gs-coupled human A2A receptor was measured in T cells, where this receptor is highly expressed. Determination of receptor activity was done by quantification of cAMP, which is a second messenger for adenosine receptors.
In short, human pan T cells were isolated from human PBMC (MACS Pan T Cell Isolation Kit, Miltenyi Biotec) that have been derived from fresh whole blood. The T cells were seeded in 384-well microtiter plates and treated with test compounds. […] Finally, HTRF reagents (cAMP Femto Kit, CisBio) were added to the wells, and after 1 h cellular cAMP levels were determined using the ENVISION (Perkin Elmer) plate reader.
The obtained raw data were normalized against the inhibitor control and the neutral control (DMSO) and the normalized data were fitted using Genedata Screener software.

[4] = system: Human T cell; assay: Human T cell IL-2; conditions: human T cells
[5] = system: mouse Pan T cells; assay: Mouse T cell IL-2 rescue from NECA (CD3/CD28-activated Pan T cells, ELISA); conditions: 24 h
Description: Adenosine (Ado) in tumor microenvironment can inhibit T cell activity by signaling through A2A receptors and suppress cytokine secretion by T cells. […] Potential A2A antagonists or A2A/A2B dual antagonists can rescue T cells from this inhibition. Herein, we describe the in vitro system we established using Pan T cells from mouse spleens to screen potential A2A antagonists or A2A/A2B dual antagonists for their activity. The method described involves the use of CD3/CD28 pre-coated beads to stimulate Pan T cells purified from mouse splenocytes, combined with the addition of A2A agonist along with potential A2A or A2A/A2B dual antagonists to evaluate potentiation of T cell cytokine production.
Briefly, mouse Pan T cells are purified from spleens of BALB/c mice using Pan T cell isolation kit Mouse II (MACS Miltenyi biotech Cat #Order no. 130-095-130) according to manufacturer's protocol. The purified T cells are seeded in Nunc™ 96-Well Polystyrene Round Bottom Microwell Plates in RPMI medium with 10% heat inactivated fetal bovine serum. The cells are rested at 37° C. for 1 h before activating with CD3/CD28 pre-coated beads (Dynabeads™ Mouse T-Activator CD3/CD28; Cat #11456D). After 30 min the cells are treated with varying doses of test antagonist(s). […] After 24 h incubation IL-2 levels in the supernatants are measured by ELISAs according to manufacturer's protocol (R&D systems Cat #DY402 (IL-2)). Once the concentrations are calculated, the difference of cytokine concentration of DMSO control and agonist alone control is calculated and the percentage of rescue by each concentration of antagonist is calculated by using Microsoft Excel. These percentages of cytokine rescue in a dose dependent manner of antagonist is plotted in GraphPad Prism software and IC50 is calculated.

T1 sequence (P29274 whole entry): as above

SMILES: O=C(c1cc2c(cn1)c(-c1coc3ccc(F)cc13)nn2CC(F)(F)F)N1CCCOCC1 [Compound 109, [3-(5-fluorobenzofuran-3-yl)-1-(2,2,2-trifluoroethyl)pyrazolo[4,3-c]pyridin-6-yl]-(1,4-oxazepan-4-yl)methanone]
- IC50 [1]: < 100 nM
- IC50 [2]: < 100 nM
- IC50 [3]: < 100 nM
- IC50 [4]: < 100 nM
- IC50 [5]: < 1000 nM
